Measured values: ChEMBL document CHEMBL5576110, “Identification of AdipoRon analogues as novel activators of AMPK for the treatment of type 2 diabetes” (RSC Med Chem, 2024)
Activity calls are given as the source filed them. The rule behind the calls is not given here.

Experiments:
[1] = Stability in mouse liver microsomes assessed as parent compound remaining preincubated for 5 mins followed by NADPH addition measured after 45 mins by LC/MS analysis; type: ADME, Microsome; settings: time 50 min, read-out: Stability
[2] = Half life in mouse liver microsomes by LC/MS analysis; type: ADME, Microsome
[3] = Half life in human liver microsomes by LC/MS analysis; type: ADME, Microsome
[4] = Intrinsic clearance in mouse liver microsomes preincubated for 5 mins followed by NADPH addition measured after 45 mins by LC/MS analysis; type: ADME, Microsome; settings: time 50 min, read-out: CLH
[5] = Stability in human liver microsomes assessed as parent compound remaining preincubated for 5 mins followed by NADPH addition measured after 45 mins by LC/MS analysis; type: ADME, Microsome; settings: time 50 min, read-out: Stability
C2C12 [6] = test: Agonist activity at adiponectin receptor in mouse C2C12 cells assessed as increase in AMPK phosphorylation at 10 uM measured after 2 hrs by Western blot analysis; type: cell-based; settings: filed as agonist
C2C12 [7] = test: Induction of glucose consumption in mouse C2C12 cells at 10 uM measured after 12 hrs (reference value: 100%); type: functional
Mus musculus [8] = test: Hypoglycemic activity in lean C57BL/6J mouse assessed as reduction in blood glucose level at 10 mg/kg, IG administered 2 hrs prior to glucose challenge measured up to 90 mins by IPGTT; type: functional, organism-based; settings: time 3.5 hrs
Mus musculus [9] = test: Hypoglycemic activity in lean C57BL/6J mouse assessed as reduction in blood glucose level at 100 mg/kg, IG administered 2 hrs prior to glucose challenge measured up to 90 mins by IPGTT; type: functional, organism-based; settings: time 3.5 hrs
[10] = Agonist activity at adiponectin receptor in mouse C2C12 cells assessed as increase in AMPK phosphorylation; type: cell-based
Mus musculus [11] = test: Anti-hyperglycemic activity in db/db mouse assessed as improvement in insulin resistance at 100 mg/kg, IG administered once daily for 6 weeks by insulin tolerance test; type: functional, organism-based
[12] = biological target: T1, Acetyl-CoA carboxylase (Homo sapiens) (UniProt Q13085+O00763); test: Induction of ACC phosphorylation in human HepG2 cells measured at 10 uM by Western blot analysis; type: cell-based; settings: filed as activator, time 0.5-12 hrs, TDE = time-dependent effect
[13] = biological target: 5'-AMP-activated protein kinase (Mus musculus) (UniProt Q5EG47+Q8BRK8+Q6PAM0+O54950+Q91WG5+Q9R078+Q8BGM7); test: Induction of AMPK phosphorylation in mouse C2C12 cells at 10 uM measured after 1 to 12 hrs by Western blot analysis; type: cell-based; settings: filed as activator, time 1-12 hrs
HepG2 [14] = test: Induction of AMPK in human HepG2 cells at 10 uM measured after 0.5 to 12 hrs by Western blot analysis; type: cell-based; settings: filed as activator, time 0.5-12 hrs
HepG2 [15] = test: Cytotoxicity against human HepG2 cells at 5 to 20 uM measured after 72 hrs by MTT assay; type: toxicity, cell-based; settings: hepg2, 72 h, dose 5-20 µM
C2C12 [16] = test: Cytotoxicity against mouse C2C12 cells at 5 to 20 uM measured after 72 hrs by MTT assay; type: toxicity, cell-based; settings: c2c12, 72 h, dose 5-20 µM
[17] = biological target: T1, Acetyl-CoA carboxylase (Homo sapiens); test: Induction of ACC phosphorylation in human HepG2 cells measured after 2 hrs by Western blot analysis; type: cell-based; settings: filed as activator, dose 0.1-20 µM
[18] = Toxicity in db/db mouse assessed as effect on body weight at 100 mg/kg, IG administered once daily for 2 to 6 weeks measured weekly during compound dosing; type: organism-based; settings: in vivo, po, time 2-6 weeks
Mus musculus [19] = test: Hypoglycemic activity in IG dosed lean C57BL/6J mouse assessed as reduction in blood glucose level administered 2 hrs prior to glucose challenge measured up to 90 mins by IPGTT; type: functional, organism-based; settings: dose 50-100 mg/kg, time 3.5 hrs
[20] = Intrinsic clearance in human liver microsomes preincubated for 5 mins followed by NADPH addition measured after 45 mins by LC/MS analysis; type: ADME, Microsome; settings: time 50 min, read-out: CLH
HepG2 [21] = test: Induction of AMPK phosphorylation in human HepG2 cells at 0.1 to 20 uM measured after 2 hrs by Western blot analysis; type: cell-based; settings: filed as activator, dose 0.1-20 µM
Mus musculus [22] = test: Anti-hyperglycemic activity in db/db mouse assessed as reduction in blood glucose level at 100 mg/kg, IG administered once daily for 2 to 6 weeks measured weekly during compound dosing; type: functional, organism-based; settings: time 2-6 weeks
C2C12 [23] = test: Agonist activity at adiponectin receptor in mouse C2C12 cells assessed as increase in ACC phosphorylation measured after 2 hrs by Western blot analysis; type: cell-based; settings: filed as agonist, dose 0.1-20 µM

SMILES	Activity (C2C12 [6])	Activity (C2C12 [7]) [%]	also measured
O=C(c1ccc(F)cc1)C1CCN(CCn2c(=O)[nH]c3ccccc3c2=O)CC1 [KETANSERIN]	–	–	remaining at 0.75 h [1]: 29%; half-life [2]: 26 min; half-life [3]: 28 min; CLint scaled [4]: 245 mL/min/kg; remaining at 0.75 h [5]: 31%
COc1ccc(/C=C/C(=O)NC2CCN(C(=O)C(C)(C)Oc3ccc(C(=O)c4ccc(Cl)cc4)cc3)CC2)cc1OC	Active	118.3	–
CC(C)(Oc1ccc(C(=O)c2ccc(Cl)cc2)cc1)C(=O)N1CCC(NC(=O)/C=C/c2ccccc2)CC1	Active	113	–
CC(C)(Oc1ccc(C(=O)c2ccccc2)cc1)C(=O)N1CCN(C(=O)/C=C/c2ccccc2)CC1	Active	132.5	–
COc1cc(/C=C/C(=O)N2CCC(NC(=O)C(C)(C)Oc3ccc(C(=O)c4ccc(Cl)cc4)cc3)CC2)ccc1O	Active	126.1	–
COc1ccc(/C=C/C(=O)N2CCN(C(=O)C(C)(C)Oc3ccc(C(=O)c4ccc(Cl)cc4)cc3)CC2)cc1OC	Active	138.5	–
COc1ccc(/C=C/C(=O)NC2CCN(C(=O)C(C)(C)Oc3ccc(C(=O)c4ccccc4)cc3)CC2)cc1OC	Active	116.7	–
CC(C)(Oc1ccc(C(=O)c2ccc(Cl)cc2)cc1)C(=O)NC1CCN(C(=O)/C=C/c2ccccc2)CC1	Active	117.3	–
COc1ccc(/C=C/C(=O)N2CCN(C(=O)C(C)(C)Oc3ccc(C(=O)c4ccccc4)cc3)CC2)cc1OC	Active	135.8	–
COc1cc(/C=C/C(=O)NC2CCN(C(=O)C(C)(C)Oc3ccc(C(=O)c4ccccc4)cc3)CC2)ccc1O	Active	128.5	–
CC(C)(Oc1ccc(C(=O)c2ccccc2)cc1)C(=O)N1CCC(NC(=O)/C=C/c2ccccc2)CC1	Active	117.6	–
COc1cc(/C=C/C(=O)N2CCC(NC(=O)C(C)(C)Oc3ccc(C(=O)c4ccccc4)cc3)CC2)ccc1O	Active	115.2	–
CC(C)(Oc1ccc(C(=O)c2ccc(Cl)cc2)cc1)C(=O)N1CCN(C(=O)/C=C/c2ccccc2)CC1	Active	129	–
O[C@@H]1CO[C@H]2[C@@H]1OC[C@H]2Oc1nc2nc(-c3ccc(-c4ccccc4)cc3)c(Cl)cc2[nH]1	–	–	Activity (Mus musculus [8]): Active
O=C(COc1ccc(C(=O)c2ccccc2)cc1)NC1CCN(Cc2ccccc2)CC1	Active	135.2	Activity (Mus musculus [9]): Active; EC50 [10]: ~10 µM
COc1cc(/C=C/C(=O)N2CCN(C(=O)C(C)(C)Oc3ccc(C(=O)c4ccc(Cl)cc4)cc3)CC2)ccc1O	Active	141.7	remaining at 0.75 h [1]: 38%; Activity (Mus musculus [11]): Active; Activity [12]: Tde; half-life [2]: 33 min; Activity [13]: Active; Activity (HepG2 [14]): Active; Activity (HepG2 [15]): Non-Toxic; Activity (C2C12 [16]): Non-Toxic; half-life [3]: 87 min; Activity [17]: Dose-Dependent Effect; CLint scaled [4]: 156 mL/min/kg; Activity [18]: Non-Toxic; Activity (Mus musculus [19]): Dose-Dependent Effect; CLint scaled [20]: 21 mL/min/kg; Activity (HepG2 [21]): Active; Activity (Mus musculus [22]): Active; Activity (C2C12 [23]): Dose-Dependent Effect; remaining at 0.75 h [5]: 69%
COc1ccc(/C=C/C(=O)N2CCC(NC(=O)C(C)(C)Oc3ccc(C(=O)c4ccccc4)cc3)CC2)cc1OC	Active	104.5	–
COc1cc(/C=C/C(=O)N2CCN(C(=O)C(C)(C)Oc3ccc(C(=O)c4ccccc4)cc3)CC2)ccc1O	Active	136.4	–
CC(C)(Oc1ccc(C(=O)c2ccccc2)cc1)C(=O)NC1CCN(C(=O)/C=C/c2ccccc2)CC1	Active	121.3	–
COc1ccc(/C=C/C(=O)N2CCC(NC(=O)C(C)(C)Oc3ccc(C(=O)c4ccc(Cl)cc4)cc3)CC2)cc1OC	Active	125.1	–
